# Assay results taken from patent US20190352276A1, “INHIBITORS OF BRUTON'S TYROSINE KINASE” (Joint Stock Company "Biocad", priority 2016, published 2019).
# Assay: Chemical stability in artificial gastric fluid (SGF without enzymes); also: time not given here
# Details: 10 μM in SGF without enzymes, pH=1.4, 37° C.
row,Amount of substance in the sample in % (chemical stability),SMILES
1,100%,C=CC(=O)N1CCC[C@@H](n2nc(-c3ccc(C(=O)Nc4ccccn4)cc3)c3cncc(Cl)c32)C1 [BCD-BTK -201]
2,95.5%,"C=CC(=O)N1CCC[C@@H](n2nc(-c3ccc(Oc4ccncc4C#N)cc3)c3cncc(Cl)c32)C1 [BCD-BTK -202, (R)-4-(4-(1-(1-acryloylpiperidin-3-yl)-7-chloro-1H-pyrazolo[4,3-c]pyridin-3-yl)phenoxy)nicotinonitrile]"
3,100%,"C=CC(=O)N1CCC[C@@H](n2nc(-c3ccc(Oc4ccncc4C(N)=O)cc3)c3cncc(Cl)c32)C1 [BCD-BTK -203, (R)-4-(4-(1-(1-acryloylpiperidin-3-yl)-7-chloro-1H-pyrazolo[4,3-c]pyridin-3-yl)phenoxy)nicotinamide]"
4,100%,"C=CC(=O)N1CCC[C@@H](n2nc(-c3ccc(-n4ccc(=O)cc4)cc3F)c3cncc(Cl)c32)C1 [BCD-BTK -204, (R)-1-(4-(1-(1-acryloylpiperidin-3-yl)-7-chloro-1H-pyrazolo[4,3-c]pyridin-3-yl)-3-fluorophenyl)pyridin-4(1H)-one]"
5,100%,"C=CC(=O)N1CCC[C@@H](n2nc(-c3ccc(-n4ccc(=O)cc4)c(F)c3)c3cncc(Cl)c32)C1 [BCD-BTK -205, (R)-1-(4-(1-(1-acryloylpiperidin-3-yl)-7-chloro-1H-pyrazolo[4,3-c]pyridin-3-yl)-2-fluorophenyl)pyridin-4(1H)-one]"
6,100%,"C=CC(=O)N1CCC[C@@H](n2nc(-c3cnc(-n4ccc(=O)c(C#N)c4)nc3)c3cncc(Cl)c32)C1 [BCD-BTK -206, (R)-1-(5-(1-(1-acryloylpiperidin-3-yl)-7-chloro-1H-pyrazolo[4,3-c]pyridin-3-yl)pyrimidin-2-yl)-4-oxo-1,4-dihydropyridine-3-carbonitrile]"
7,100%,"C=CC(=O)N1CCC[C@@H](n2nc(-c3cnc(-n4ccc(=O)c(C(N)=O)c4)nc3)c3cncc(Cl)c32)C1 [BCD-BTK -207, (R)-1-(5-(1-(1-acryloylpiperidin-3-yl)-7-chloro-1H-pyrazolo[4,3-c]pyridin-3-yl)pyrimidin-2-yl)-4-oxo-1,4-dihydropyridine-3-carboxamide]"
8,100%,"C=CC(=O)N1CCC[C@@H](n2nc(-c3ccc(-n4ccc(=O)c(C#N)c4)cc3)c3cncc(Cl)c32)C1 [BCD-BTK -208, (R)-1-(4-(1-(1-acryloylpiperidin-3-yl)-7-chloro-1H-pyrazolo[4,3-c]pyridin-3-yl)phenyl)-4-oxo-1,4-dihydropyridine-3-carbonitrile]"
9,96.1%,"C=CC(=O)N1CCC[C@@H](n2nc(-c3ccc(C(=O)Nc4cc(C(F)(F)F)ccn4)cc3)c3cncc(Cl)c32)C1 [BCD-BTK -210, (R)-4-(1-(1-acryloylpiperidin-3-yl)-7-chloro-1H-pyrazolo[4,3-c]pyridin-3-yl)-N-(4-(trifluoromethyl)pyridin-2-yl)benzamide]"
10,100%,"C=CC(=O)N1CCC[C@@H](n2nc(-c3ccc(Oc4ccncc4)cc3)c3cncc(F)c32)C1 [BCD-BTK -211, (R)-1-(3-(7-fluoro-3-(4-(pyridin-4-yloxy)phenyl)-1H-pyrazolo[4,3-c]pyridin-1-yl)piperidin-1-yl)prop-2-en-1-one]"
11,100%,"C=CC(=O)N1CCC[C@@H](n2nc(-c3ccc(C(=O)Nc4ccc(F)cn4)cc3)c3cncc(Cl)c32)C1 [BCD-BTK -212, (R)-4-(1-(1-acryloylpiperidin-3-yl)-7-chloro-1H-pyrazolo[4,3-c]pyridin-3-yl)-N-(5-fluoropyridin-2-yl)benzamide]"
12,97.4%,"C=CC(=O)N1CCC[C@@H](n2nc(-c3ccc(Oc4ccncc4C#N)cc3)c3cncc(C#N)c32)C1 [BCD-BTK -213, (R)-1-(1-acryloylpiperidin-3-yl)-3-(4-(3-cyanopyridin-4-yloxy)phenyl)-1H-pyrazolo[4,3-c]pyridine-7-carbonitrile]"
13,100%,"C=CC(=O)N1CCC[C@@H](n2nc(-c3ccc(C(=O)Nc4cc(C(F)(F)CC)ccn4)cc3)c3cncc(F)c32)C1 [BCD-BTK -214, (R)-4-(1-(1-acryloylpiperidin-3-yl)-7-fluoro-1H-pyrazolo[4,3-c]pyridin-3-yl)-N-(4-(1,1-difluoropropyl)pyridin-2-yl)benzamide]"
14,100%,"C=CC(=O)N1CCC[C@@H](n2nc(-c3ccc(C(=O)Nc4cc(C(F)(F)CC)ccn4)cc3)c3cncc(Cl)c32)C1 [BCD-BTK -215, (R)-4-(1-(1-acryloylpiperidin-3-yl)-7-chloro-1H-pyrazolo[4,3-c]pyridin-3-yl)-N-(4-(1,1-difluoropropyl)pyridin-2-yl)benzamide]"
15,96.3%,"C=CC(=O)N1CCC[C@@H](n2nc(-c3ccc(Oc4cccnc4C#N)cc3)c3cncc(C#N)c32)C1 [BCD-BTK -216, (R)-1-(1-acryloylpiperidin-3-yl)-3-(4-(2-cyanopyridin-3-yloxy)phenyl)-1H-pyrazolo[4,3-c]pyridine-7-carbonitrile]"
16,95.3%,"C=CC(=O)N1CCC[C@@H](n2nc(-c3ccc(Oc4ccncc4C#N)cc3)c3cncc(F)c32)C1 [BCD-BTK -217, (R)-4-(4-(1-(1-acryloylpiperidin-3-yl)-7-fluoro-1H-pyrazolo[4,3-c]pyridin-3-yl)phenoxy)nicotinonitrile]"
17,96%,"C=CC(=O)N1CCC[C@@H](n2nc(-c3ccc(Oc4cccnc4C#N)cc3)c3cncc(Cl)c32)C1 [BCD-BTK -218, 3-(4-{7-chloro-1-[1-(prop-2-enoyl)piperidin-3-yl]-1H-pyrazolo[4,3-c]pyridin-3-yl}phenoxy)pyridine-2-carbonitrile]"
18,97%,"C=CC(=O)N1CCC[C@@H](n2nc(-c3ccc(Oc4ccncc4)cc3)c3cncc(C#N)c32)C1 [BCD-BTK - 123, (R)-1-(1-acryloylpiperidin-3-yl)-3-(4(pyridin-4-yloxy)phenyl)-1H-pyrazolo[4,3-c]pyridin-7-carbonitrile]"
19,100%,"C=CC(=O)N1CCC[C@@H](n2nc(-c3ccc(Oc4ccncc4)cc3)c3cncc(Cl)c32)C1 [BCD-BTK - 125, (R)-1-(1-acryloylpiperidin-3-yl)-7-chloro-3-(4-(pyridin-4-yloxy)phenyl)-1H-pyrazolo[4,3-c]pyridine]"
20,100%,"C=CC(=O)N1CCC[C@@H](n2nc(-c3ccc(Oc4ccncc4)cc3)c3c(N)ncc(C#N)c32)C1 [BCD-BTK - 134, (R)-1-(1-acryloylpiperidin-3-yl)-4-amino-3-(4-(pyridin-4-yloxy)phenyl)-1H-pyrazolo[4,3-c]pyridin-7-carbonitrile]"
21,100%,"C=CC(=O)N1CCC[C@@H](n2nc(-c3ccc(Oc4ccncc4)cc3)c3c(N)ncc(Cl)c32)C1 [BCD-BTK - 139, (R)-1-(1-acryloylpiperidin-3-yl)-7-chloro-3-(4-(pyridin-4-yloxy)phenyl)-1H-pyrazolo[4,3-c]pyridin-4-amine]"
22,100%,"C=CC(=O)N1CCC[C@@H](n2nc(-c3ccc(C(=O)Nc4cccc(F)n4)cc3)c3cncc(F)c32)C1 [BCD-BTK - 248, (R)-4-(1-(1-acryloylpiperidin-3-yl)-7-fluoro-1H-pyrazolo[4,3-c]pyridin-3-yl)-N-(6-fluoropyridin-2-yl)benzamide]"
23,100%,"C=CC(=O)N1CCC[C@@H](n2nc(-c3ccc(C(=O)Nc4ncccc4F)cc3)c3cncc(F)c32)C1 [BCD-BTK - 249, (R)-4-(1-(1-acryloylpiperidin-3-yl)-7-fluoro-1H-pyrazolo[4,3-c]pyridin-3-yl)-N-(3-fluoropyridin-2-yl)benzamide]"
24,100%,"C=CC(=O)N1CCC[C@@H](n2nc(-c3ccc(C(=O)Nc4cccc(F)n4)cc3)c3c(N)ncc(Cl)c32)C1 [BCD-BTK - 250, (R)-4-(1-(1-acryloylpiperidin-3-yl)-4-amino-7-chloro-1H-pyrazolo[4,3-c]pyridin-3-yl)-N-(6-fluoropyridin-2-yl)benzamide]"
25,100%,"C=CC(=O)N1CCC[C@@H](n2nc(-c3ccc(C(=O)Nc4cc(C(F)(F)F)ccn4)cc3)c3c(N)ncc(Cl)c32)C1 [BCD-BTK - 251, (R)-4-(1-(1-acryloylpiperidin-3-yl)-4-amino-7-chloro-1H-pyrazolo[4,3-c]pyridin-3-yl)-N-(4-(trifluoromethyl)pyridin-2-yl)benzamide]"
26,94.4%,"C=CC(=O)N1CCC[C@@H](n2nc(-c3ccc(C(=O)Nc4cc(C(F)(F)CCC)ccn4)cc3)c3cncc(Cl)c32)C1 [BCD-BTK - 252, (R)-4-(1-(1-acryloylpiperidin-3-yl)-7-chloro-1H-pyrazolo[4,3-c]pyridin-3-yl)-N-(4-(1,1-difluorobutyl)pyridin-2-yl)benzamide]"
27,100%,"C=CC(=O)N1CCC[C@@H](n2nc(-c3ccc(C(=O)Nc4cc(C(F)(F)CCC)ccn4)cc3)c3c(N)ncc(Cl)c32)C1 [BCD-BTK - 254, (R)-4-(1-(1-acryloylpiperidin-3-yl)-4-amino-7-chloro-1H-pyrazolo[4,3-c]pyridin-3-yl)-N-(4-(1,1-difluorobutyl)pyridin-2-yl)benzamide]"
28,100%,"C=CC(=O)N1CCC[C@@H](n2nc(-c3ccc(Oc4cccnc4C(N)=O)cc3)c3cncc(F)c32)C1 [BCD-BTK - 255, (R)-3-(4-(1-(1-acryloylpiperidin-3-yl)-7-fluoro-1H-pyrazolo[4,3-c]pyridin-3-yl)phenoxy)picolinamide]"
